Source: ChEMBL document CHEMBL3885861, “Open TG-GATES”

Organism: Rattus norvegicus
Test: Open TG-GATES - Regimen: Daily Repeat
Type: toxicity, organism-based, Sprague-Dawley
Set-up: regimen Daily Repeat, gender Male, age 6 weeks
Conditions: in vivo, po, 0 mg/kg, […], route gavage, dose level Control; for KIDNEY_L / KIDNEY_R / KIDNEY_TOTAL: tissue Kidney; for LIVER: tissue Liver; for A/G / ALP / ALT / AST / BUN / CRE / Ca / Cl / DBIL / GLC / IP / K / LDH / Na / PL / RALB / TBIL / TC / TG / TP / gamma-GTP: tissue Plasma

NC(=O)N/N=C/c1ccc([N+](=O)[O-])o1 [NITROFURAZONE]
Lym (tissue Blood, time 28 day): 77%
MCH (tissue Blood, time 28 day): 19.5 pg
MCHC (tissue Blood, time 28 day): 33.7%
MCV (tissue Blood, time 28 day): 58 fL
Mono (tissue Blood, time 28 day): 1.8%
Neu (tissue Blood, time 28 day): 19.4%
PT (tissue Blood, time 28 day): 14.9 s
Plat (tissue Blood, time 28 day): 105 x10_4/uL
RBC (tissue Blood, time 28 day): 767.2 x10_4/ul
Ret (tissue Blood, time 28 day): 2.6%
WBC (tissue Blood, time 28 day): 74.7 x10_2/uL
KIDNEY_L (time 7 day): 1.1 g
KIDNEY_R (time 7 day): 1.1 g
KIDNEY_TOTAL (time 7 day): 2.1 g
KIDNEY_L (time 14 day): 1.3 g
KIDNEY_R (time 14 day): 1.2 g
KIDNEY_TOTAL (time 14 day): 2.5 g
KIDNEY_L (time 28 day): 1.5 g
KIDNEY_R (time 28 day): 1.3 g
KIDNEY_TOTAL (time 28 day): 2.8 g
LIVER (time 7 day): 12.2 g
LIVER (time 14 day): 15.1 g
LIVER (time 28 day): 16.8 g
A/G (time 7 day): 0.8
ALP (time 7 day): 1832.4 IU/L
ALT (time 7 day): 45.8 IU/L
AST (time 7 day): 69 IU/L
BUN (time 7 day): 15.6 mg/dL
CRE (time 7 day): 0.2 mg/dL
Ca (time 7 day): 11.2 mg/dL
Cl (time 7 day): 104 meq/L
DBIL (time 7 day): 0.022 mg/dL
GLC (time 7 day): 196.2 mg/dL
IP (time 7 day): 7.5 mg/dL
K (time 7 day): 3.6 meq/L
LDH (time 7 day): 69 IU/L
Na (time 7 day): 141.6 meq/L
PL (time 7 day): 146.4 mg/dL
RALB (time 7 day): 2.6 g/dL
TBIL (time 7 day): 0.054 mg/dL
TC (time 7 day): 76.2 mg/dL
TG (time 7 day): 93.2 mg/dL
TP (time 7 day): 5.6 g/dL
gamma-GTP (time 7 day): 1 IU/L
A/G (time 14 day): 0.8
ALP (time 14 day): 1410 IU/L
ALT (time 14 day): 43.4 IU/L
AST (time 14 day): 65.6 IU/L
BUN (time 14 day): 17.4 mg/dL
CRE (time 14 day): 0.2 mg/dL
Ca (time 14 day): 11 mg/dL
Cl (time 14 day): 105.4 meq/L
DBIL (time 14 day): 0.012 mg/dL
GLC (time 14 day): 195.4 mg/dL
IP (time 14 day): 7.5 mg/dL
K (time 14 day): 4 meq/L
LDH (time 14 day): 70 IU/L
Na (time 14 day): 142.8 meq/L
PL (time 14 day): 159.8 mg/dL
RALB (time 14 day): 2.6 g/dL
TBIL (time 14 day): 0.046 mg/dL
TC (time 14 day): 79.2 mg/dL
TG (time 14 day): 119 mg/dL
TP (time 14 day): 5.8 g/dL
gamma-GTP (time 14 day): 1.2 IU/L
A/G (time 28 day): 0.8
ALP (time 28 day): 1109.8 IU/L
ALT (time 28 day): 38 IU/L
AST (time 28 day): 62.4 IU/L
BUN (time 28 day): 16.6 mg/dL
CRE (time 28 day): 0.2 mg/dL
Ca (time 28 day): 10.9 mg/dL
Cl (time 28 day): 104 meq/L
DBIL (time 28 day): 0.014 mg/dL
GLC (time 28 day): 192 mg/dL
IP (time 28 day): 6.9 mg/dL
K (time 28 day): 3.4 meq/L
LDH (time 28 day): 61.2 IU/L
Na (time 28 day): 145.2 meq/L
PL (time 28 day): 139.6 mg/dL
RALB (time 28 day): 2.7 g/dL
TBIL (time 28 day): 0.068 mg/dL
TC (time 28 day): 60.6 mg/dL
TG (time 28 day): 145.4 mg/dL
TP (time 28 day): 6.1 g/dL
gamma-GTP (time 28 day): 0.8 IU/L
